Here are results for 2 compounds from patent publication US12285012B2, “Compositions comprising pyridine carboxylate herbicides with acetolactate synthase (ALS) inhibitor herbicides” (Corteva Agriscience LLC, priority 2018, dated 2025).

Values joined by “and” are separate entries in the source; they are usually repeats but may differ in a detail not shown here. Identical values can stand only once. Like-named read-outs stand apart in the source and are kept apart here.

The subject of data set [1] is Canadian thistle (CIRAR, Cirsium arvense). Description: Greenhouse postemergence herbicidal effect. Format: in vivo. The gist of the method: (§1)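 Injury was rated visually after 20-22 d on a 0 (none) to 100% (complete kill) scale relative to solvent-sprayed controls, with sub-irrigation to avoid wash-off. Rates were given in g ae/ha or g ai/ha depending on component.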

Data set [2] deals with Russian thistle (SASKR, Salsola kali). Description: Greenhouse postemergence herbicidal effect. Format: in vivo. The gist of the method: as §1
In data set [3] the test system is chickweed (STEME, Stellaria media). In words: Greenhouse postemergence herbicidal effect. Format: in vivo. The conditions noted are these: for Obs % visual injury: STEME. In short, it runs like this: as §1
In data set [4] the test system is pigweed (AMARE, Amaranthus retroflexus). In words: Greenhouse postemergence herbicidal effect. The conditions noted are these: for Obs % visual injury: AMARE. Type of data set: in vivo. In short, it runs like this:
as §1

Data set [5] deals with pineapple weed (MATMT, Matricaria discoidea). In words: Greenhouse postemergence herbicidal effect. Format: in vivo. The following applies: for Obs % visual injury: MATMT. The gist of the method: as §1
The test system of data set [6] is wild buckwheat (POLCO, Polygonum convolvulus). Description: Greenhouse postemergence herbicidal effect. Format: in vivo. The following applies: for Obs % visual injury: POLCO. The gist of the method:
as §1

Data set [7] deals with wild chamomile (MATCH, Matricaria chamomilla). Description: Greenhouse postemergence herbicidal effect. Format: in vivo. The following applies: for Obs % visual injury: MATCH. In short, it runs like this: as §1
Data set [8] relates to wild pansy (VIOTR, Viola tricolor). In words: Greenhouse postemergence herbicidal effect. Type of data set: in vivo. The following applies: for Obs % visual injury: VIOTR. The gist of the method: as §1
In data set [9] the test system is winter rape (BRSNW, Brassica napus). Description: Greenhouse postemergence herbicidal effect. Format: in vivo. The conditions noted are these: for Obs % visual injury: BRSNW. The gist of the method: as §1
The subject of data set [10] is kochia (KCHSC, Kochia scoparia). Description: Greenhouse postemergence herbicidal effect. Type of data set: in vivo. The conditions noted are these: for Obs % visual injury: KCHSC. The gist of the method:
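Plants at the second or third true leaf stage received overhead spray at 187 L/ha, with the pyridine carboxylate (plus cloquintocet-mexyl safener) alone or with ALS herbicides in 1.25% v/v crop oil. Rates are in g ae/ha or g ai/ha. Visual injury versus solvent-blank controls was scored 0–100% after 20-22 d in the greenhouse.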

The test system of data set [11] is spring wheat (TRZAS). Type of data set: in vivo, Triticum aestivum. The following applies: for Obs % visual injury: TRZAS. The gist of the method:
as §1

[12] abbreviates: Compound B (without cloquintocet-mexyl safener) 10 g/ha.

As for `C#CCOC(=O)c1nc(-c2ccc3cc[nH]c3c2F)c(F)c(N)c1Cl` [Compound B, propargyl 4-amino-3-chloro-5-fluoro-6-(7-fluoro-1H-indol-6-yl)pyridine-2-carboxylate], the “Obs % visual injury” value in [1] (CIRAR, Compound B 5 g/ha) is 50%; in data set [2] (SASKR, Compound B 10 g/ha), 63%; in data set [3] (Compound B 5 g/ha) it was 85%; in [3] (Compound B 10 g/ha), 95%; in data set [4] (Compound B 5 g/ha), 93%; in data set [4] (Compound B 10 g/ha), 84% and 94%. In addition, the “Obs % visual injury” value in [5] (Compound B 10 g/ha) was 20%; in [6] (Compound B 5 g/ha) it was 88%; in [6] (Compound B 10 g/ha), 97% and 87%; in data set [7] (Compound B 10 g/ha) it was 20% and 18%; in data set [8] (Compound B 5 g/ha), 20%; in data set [8] (Compound B 10 g/ha), 18%. Further, the “Obs % visual injury” value is 93% in data set [9] (Compound B 10 g/ha); 60% in data set [10] (Compound B 5 g/ha); 65% in [10] (Compound B 10 g/ha); 96% in data set [10] (setting [12]); 13% in data set [11] (Compound B 5 g/ha); 28% in data set [11] (setting [12]). For the same compound, the pest or weed control at 10 g/ha in data set [1] (Cirsium arvense, post-emergence, 10 g/ha, read-out: % visual injury, Obs) was found to be 55%; in data set [10] (Bassia scoparia, post-emergence, 10 g/ha, read-out: % visual injury, Obs), 73%. The “% visual injury, Obs” value is on record as 90% in [3] (10 g/ha), 73% in data set [4] (10 g/ha), 90% in [6] (10 g/ha) and 8% in [8] (10 g/ha).
With `COc1ncc(F)c2nc(S(=O)(=O)Nc3c(F)cccc3F)nn12` [Florasulam, florasulam], the “% visual injury Obs” value is on record as 68% in data set [1] (Florasulam 3.75 g/ha); 100% in [4] (Florasulam 3.75 g/ha); 90% in data set [6] (Florasulam 3.75 g/ha); 85% in [7] (Florasulam 3.75 g/ha); 95% in data set [9] (Florasulam 3.75 g/ha); 70% in data set [10] (Florasulam 3.75 g/ha). Further, in data set [11] (Florasulam 3.75 g/ha), the “% visual injury Obs” value amounted to 0%. In addition, the “% visual injury” value is given as 75% in data set [1] (Florasulam 5 g/ha); 85% in data set [2] (Florasulam 5 g/ha); 100% in data set [3] (Florasulam 5 g/ha); 95% in [5] (Florasulam 5 g/ha); 87% in data set [6] (Florasulam 5 g/ha); 85% in data set [7] (Florasulam 5 g/ha). The “% visual injury” value in [8] (Florasulam 5 g/ha) came to 10%; in [9] (Florasulam 5 g/ha), 97%; in data set [10] (Florasulam 5 g/ha), 95%; in data set [11] (Florasulam 5 g/ha), 0%. Also, the figures for the “Obs % visual injury” value in data set [5] (Florasulam 5 g/ha), in data set [7] (Florasulam 5 g/ha) and in [9] (Florasulam 5 g/ha) were 65%, 20% and 35%, respectively.
